{"source": "patent US20050233467A1", "about": "“Visible wavelength fluorescent calcium indicators that are (i) leakage resistant and (ii) operate near membranes” (priority 2004, published 2005)", "test_system": "myocytes of mouse small mesenteric arteries", "assay": "Localization of dye in walls of mouse small mesenteric arteries (imaging)", "type": "cell-based", "conditions": "mouse small mesenteric artery wall, activated cells", "from_the_text": "The plane is tangential to the artery, very close to the coverslip. The spindle-shaped cells run horizontally, the artery lumen runs vertically. […] The FLUO-MOMO images are quite bright because the cells have been activated and [Ca^2+] cyt has risen. […] (Photo courtesy of Dr. Blaustein of The University of Maryland Medical School.)"}
{"smiles": "CCN(CC)c1ccc(/C=C/C=C/C=C/c2cc[n+](CCC[N+](CC)(CC)CC)cc2)cc1.[Br-].[Br-]", "note": "[FM4-64]", "values": [{"measurement": "localization of dye in the cell", "result": "localizes to the plasma membrane"}]}
